Assay results from the supplement of paper PMC10307832.

How the values were obtained:
Experiment in all cases: relative viability (nuclei count vs DMSO), 5 days (fraction); higher = more cells survive
[1] = compound: C1COCCN1C2=NC(=NC3=C2OC4=C3C=CC=N4)C5=CC(=CC=C5)NC(=O)C6=CN=C(C=C6)N + COc1cccc2cc(-c3nc([C@H]4CC[C@H](C(=O)O)CC4)n4ncnc(N)c34)[nH]c12 [OSI-027] (partner 0.5 µM)
Method in brief: (§1)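 Relative viability is defined as nuclei in treated wells over nuclei in vehicle wells. Duplicate plates were run and medians reported. Lung cancer cell lines in 1536-well plates were dosed by pin tool one day after seeding, with one drug or with a fixed anchor-drug dose plus five library-drug doses (not always all listed) in √10 steps, and nuclei were counted after 5 days.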

[2] = compound: C1COCCN1C2=NC(=NC3=C2OC4=C3C=CC=N4)C5=CC(=CC=C5)NC(=O)C6=CN=C(C=C6)N + Nc1ncn([C@H]2C[C@H](O)[C@@H](CO)O2)c(=O)n1 [Decitabine] (partner 2 µM)
Method in brief: as §1

SGI-1776 + Navitoclax = compound: CN1CCC(CNc2ccc3ncc(-c4cccc(OC(F)(F)F)c4)n3n2)CC1 [SGI-1776] + CC1(C)CCC(c2ccc(Cl)cc2)=C(CN2CCN(c3ccc(C(=O)NS(=O)(=O)c4ccc(N[C@H](CCN5CCOCC5)CSc5ccccc5)c(S(=O)(=O)C(F)(F)F)c4)cc3)CC2)C1 [Navitoclax] (partner 0.5 µM)
Method in brief: as §1

SGI-1776 + AZD7762 = compound: CN1CCC(CNc2ccc3ncc(-c4cccc(OC(F)(F)F)c4)n3n2)CC1 [SGI-1776] + NC(=O)Nc1cc(-c2cccc(F)c2)sc1C(=O)N[C@H]1CCCNC1 [AZD7762] (partner 0.2 µM)
Method in brief: as §1

| Cell Line | relative viability ([1]; first compound 0.02 µM) | relative viability ([1]; first compound 0.06325 µM) | relative viability ([1]; first compound 0.2 µM) | relative viability ([1]; first compound 0.6325 µM) | relative viability ([1]; first compound 2 µM) | relative viability ([2]; first compound 0.02 µM) | relative viability ([2]; first compound 0.06325 µM) | relative viability ([2]; first compound 0.2 µM) | relative viability ([2]; first compound 0.6325 µM) | relative viability ([2]; first compound 2 µM) | relative viability (SGI-1776 + Navitoclax; first compound 0.08 µM) | relative viability (SGI-1776 + Navitoclax; first compound 0.8 µM) | relative viability (SGI-1776 + Navitoclax; first compound 2.53 µM) | relative viability (SGI-1776 + Navitoclax; first compound 8 µM) | relative viability (SGI-1776 + AZD7762; first compound 0.08 µM) | relative viability (SGI-1776 + AZD7762; first compound 0.8 µM) | relative viability (SGI-1776 + AZD7762; first compound 2.53 µM) | relative viability (SGI-1776 + AZD7762; first compound 8 µM) |
| --- | --- | --- | --- | --- | --- | --- | --- | --- | --- | --- | --- | --- | --- | --- | --- | --- | --- | --- |
| NCI-H1437 | 0.816 | 0.844 | 0.791 | 0.6 | 0.535 | 0.574 | 0.646 | 0.615 | 0.696 | 0.458 | 1.13 | 1.07 | 1.11 | 1.04 | 1.11 | 1.13 | 1.07 | 1.02 |
| EKVX | 0.626 | 0.484 | 0.888 | 0.673 | 0.558 | 0.335 | 0.321 | 0.325 | 0.383 | 0.567 | 1.03 | 0.907 | 0.999 | 0.888 | 0.699 | 0.713 | 0.638 | 0.646 |
| NCI-H460 | 0.578 | 0.639 | 0.505 | 0.237 | 0.185 | 0.55 | 0.563 | 0.517 | 0.525 | 0.195 | 1.12 | 1.13 | 1.07 | 1.19 | 0.717 | 0.669 | 0.572 | 0.707 |
| NCI-H1993 | 0.554 | 0.57 | 0.567 | 0.548 | 0.549 | 0.549 | 0.293 | 0.531 | 0.547 | 0.57 | 0.95 | 0.945 | 0.832 | 0.56 | 0.839 | 0.941 | 0.889 | 0.482 |
| HCC-78 | 0.409 | 0.389 | 0.369 | 0.407 | 0.329 | 0.69 | 0.78 | 0.671 | 0.961 | 0.777 | 0.816 | 0.766 | 0.812 | 0.66 | 0.665 | 0.726 | 0.579 | 0.538 |
| NCI-H2087 | 0.508 | 0.508 | 0.47 | 0.472 | 0.267 | 0.267 | 0.281 | 0.255 | 0.332 | 0.211 | 0.963 | 1.04 | 1.04 | 0.861 | 1.29 | 1.36 | 1.44 | 1.27 |
| H3255 | 0.626 | 0.56 | 0.464 | 0.465 | 0.552 | 0.577 | 0.575 | 0.599 | 0.798 | 0.559 | 0.525 | 0.46 | 0.543 | 0.193 | 1.05 | 0.899 | 0.939 | 0.728 |
| NCI-H2126 | 0.664 | 0.767 | 0.652 | 0.675 | 0.708 | 0.54 | 0.608 | 0.606 | 0.613 | 0.503 | 0.809 | 0.877 | 0.846 | 0.743 | 1 | 0.98 | 1.02 | 0.959 |
| LCLC-103H | 0.409 | 0.419 | 0.446 | 0.452 | 0.335 | 0.724 | 0.723 | 0.731 | 0.733 | 0.527 |  |  |  |  | 0.9 | 0.776 | 0.675 | 0.729 |
| RERF-LC-KJ | 0.558 | 0.594 | 0.558 | 0.458 | 0.462 | 0.71 | 0.826 | 0.617 | 0.758 | 0.585 | 0.936 | 1.04 | 0.937 | 0.789 | 0.912 | 1.08 | 0.831 | 0.828 |
| EBC-1 |  |  |  |  |  |  |  |  |  |  | 0.458 | 0.292 | 0.289 | 0.144 |  |  |  |  |
| HCC-15 | 0.709 | 0.702 | 0.644 | 0.506 | 0.456 | 0.606 | 0.646 | 0.608 | 0.691 | 0.429 | 0.707 | 0.728 | 0.599 | 0.475 | 1.05 | 1.12 | 1.34 | 1.21 |
| NCI-H1650 | 0.657 | 0.617 | 0.434 | 0.548 | 0.397 | 0.415 | 0.401 | 0.58 | 0.661 | 0.461 | 1.22 | 1.21 | 0.981 | 0.762 |  |  |  |  |
| COR-L 105 | 0.623 | 0.645 | 0.576 | 0.556 | 0.414 | 0.604 | 0.683 | 0.61 | 0.621 | 0.572 | 0.799 | 0.86 | 1 | 0.546 |  |  |  |  |
| NCI-H596 | 0.674 | 0.735 | 0.65 | 0.526 | 0.373 | 0.951 | 0.971 | 1.15 |  | 1.07 | 0.982 | 1.05 | 0.995 | 0.939 | 1.17 | 1.15 | 0.984 | 0.897 |
| LXF-289 | 0.814 | 0.884 | 0.768 | 0.748 | 0.351 | 0.36 | 0.438 | 0.329 | 0.457 | 0.409 | 0.966 | 0.989 | 0.963 | 0.983 | 1.06 | 1.13 | 1.16 | 1.09 |
| NCI-H1703 |  |  |  |  |  |  |  |  |  |  | 1.22 | 0.914 | 0.457 | 0.178 | 0.106 | 0.114 | 0.136 | 0.106 |
| NCI-H2170 | 0.796 | 0.76 | 0.651 | 0.786 | 0.596 | 0.493 | 0.488 | 0.48 | 0.551 | 0.506 | 0.561 | 0.678 | 0.581 | 0.56 | 0.839 | 0.966 | 0.874 | 0.828 |
| NCI-H522 | 0.75 | 0.732 | 0.714 | 0.687 | 0.721 | 0.633 | 0.798 | 0.694 | 0.563 | 0.645 |  |  |  |  | 0.819 | 0.747 | 0.789 | 0.613 |
